pKi: −log10 of the molar value. Where two headings read alike, the source gives them in different places.
Assays:
human H3 receptor [1] = biological target: T1, human H3 receptor (Homo sapiens, UniProt Q9Y5N1); assay: H3 receptor binding (N-[3H]-α-methylhistamine displacement); settings: membranes of SK-N-MC cells expressing cloned human H3 receptor, 0.8 nM N-[3H]-α-methylhistamine, 60 min at 25° C.
T1 construct: expressed in transfected cells

Rat SERT = biological target: T2, Rat SERT (Rattus norvegicus, UniProt P31652); assay: Rat brain SERT binding ([3H]-citalopram displacement); settings: rat brain membranes without cerebellum, 0.6 nM [3H]-citalopram, 60 min at 25° C.; for pKi: read-out: Rat SERT Ki
T2 construct: A rat brain without cerebellum (Zivic Laboratories, Inc.—Pittsburgh, Pa.) was homogenized; tissue Zivic Laboratories, Inc; host or cells: rat brain without cerebellum, membranes
Procedure: The supernatant was removed and re-centrifuged at 15,000 rpm for 30 min. […] Membranes were incubated with 0.6 nM [^3H]-Citalopram plus/minus test compounds for 60 min at 25° C. and harvested by rapid filtration over GF/C glass fiber filters (pretreated with 0.3% polyethylenimine) followed by four washes with ice-cold buffer.

human H3 receptor [2] = biological target: T1, human H3 receptor; assay: Cyclic AMP accumulation (β-galactosidase reporter, Schild analysis); assay type: cell-based; settings: histamine agonist, forskolin 5 μM, Schild regression of pEC50 values
Procedure: Sublines of SK-N-MC cells were created that expressed a reporter construct and the human H3 receptor. The reporter gene (β-galactosidase) is under the control of multiple cyclic AMP responsive elements. In 96-well plates, histamine was added directly to the cell media followed 5 min later by an addition of forskolin (5 μM final concentration). When appropriate, antagonists were added 10 min prior to agonist addition. After a 6-h incubation at 37° C., the media was aspirated and the cells washed with 200 μL of phosphate-buffered saline followed by a second aspiration. Cells were lysed with 25 μL 0.1× assay buffer (10 mM Na-phosphate, pH 8, 0.2 mM MgSO4, 0.01 mM MnCl2) and incubated at rt for 10 min. […] Color was developed using 25 μL of 1 mg/mL substrate solution (chlorophenolred β-D galactopyranoside; Roche Molecular Biochemicals, Indianapolis, In.).

human SERT = biological target: T3, human SERT (Homo sapiens, UniProt P31645); assay: Human SERT binding (3H-citalopram displacement); settings: HEK293 membranes expressing human SERT, rt 1 h
T3 construct: expressed in transfected cells; host or cells: HEK293 membranes
Procedure: Homogenized HEK293 (Human Embryonic Kidney) membranes expressing the human SERT were incubated with ^3H-citalopram (SERT) at rt for 1 h in 50 mM Tris, 120 mM NaCl, 5 mM KCl (pH 7.4). […] The membranes were washed and the radioactivity was counted as above.

[3] = SK-N-MC cells expressing human H3 receptor and CRE-β-galactosidase reporter, read-out: pA2 (converted)

T3 sequence (P31645 whole entry): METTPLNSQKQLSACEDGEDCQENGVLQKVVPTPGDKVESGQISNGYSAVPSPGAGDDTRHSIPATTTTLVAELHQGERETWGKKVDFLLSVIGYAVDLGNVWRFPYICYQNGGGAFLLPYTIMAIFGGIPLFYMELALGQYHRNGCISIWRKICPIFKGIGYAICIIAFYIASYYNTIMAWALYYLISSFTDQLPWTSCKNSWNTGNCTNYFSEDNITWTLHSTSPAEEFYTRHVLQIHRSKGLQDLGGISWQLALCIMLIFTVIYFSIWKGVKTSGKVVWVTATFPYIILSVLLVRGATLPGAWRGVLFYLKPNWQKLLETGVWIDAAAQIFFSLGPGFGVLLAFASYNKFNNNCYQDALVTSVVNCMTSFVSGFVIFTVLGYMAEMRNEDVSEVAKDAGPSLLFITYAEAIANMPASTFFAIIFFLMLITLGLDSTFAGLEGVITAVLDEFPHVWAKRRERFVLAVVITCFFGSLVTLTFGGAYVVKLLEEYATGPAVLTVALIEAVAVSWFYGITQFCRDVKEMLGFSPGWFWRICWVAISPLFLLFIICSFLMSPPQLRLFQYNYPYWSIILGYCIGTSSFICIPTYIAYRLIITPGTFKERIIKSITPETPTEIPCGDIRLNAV
T2 sequence (P31652 whole entry): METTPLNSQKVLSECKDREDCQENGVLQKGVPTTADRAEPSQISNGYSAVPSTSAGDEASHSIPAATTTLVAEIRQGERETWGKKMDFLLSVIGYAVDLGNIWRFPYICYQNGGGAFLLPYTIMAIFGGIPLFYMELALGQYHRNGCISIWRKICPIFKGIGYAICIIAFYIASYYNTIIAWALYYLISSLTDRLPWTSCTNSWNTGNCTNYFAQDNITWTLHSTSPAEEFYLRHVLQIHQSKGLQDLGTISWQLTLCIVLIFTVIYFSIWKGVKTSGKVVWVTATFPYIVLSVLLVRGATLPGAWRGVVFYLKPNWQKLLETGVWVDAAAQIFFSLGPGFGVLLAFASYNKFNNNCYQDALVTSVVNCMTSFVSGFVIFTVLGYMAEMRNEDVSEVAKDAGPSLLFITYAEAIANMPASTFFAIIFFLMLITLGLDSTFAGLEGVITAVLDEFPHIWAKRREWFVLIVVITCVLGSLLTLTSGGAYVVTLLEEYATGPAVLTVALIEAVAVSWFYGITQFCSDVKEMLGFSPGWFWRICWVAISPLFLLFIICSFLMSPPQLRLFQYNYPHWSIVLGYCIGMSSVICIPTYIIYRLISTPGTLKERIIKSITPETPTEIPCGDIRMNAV
T1 sequence (Q9Y5N1 whole entry): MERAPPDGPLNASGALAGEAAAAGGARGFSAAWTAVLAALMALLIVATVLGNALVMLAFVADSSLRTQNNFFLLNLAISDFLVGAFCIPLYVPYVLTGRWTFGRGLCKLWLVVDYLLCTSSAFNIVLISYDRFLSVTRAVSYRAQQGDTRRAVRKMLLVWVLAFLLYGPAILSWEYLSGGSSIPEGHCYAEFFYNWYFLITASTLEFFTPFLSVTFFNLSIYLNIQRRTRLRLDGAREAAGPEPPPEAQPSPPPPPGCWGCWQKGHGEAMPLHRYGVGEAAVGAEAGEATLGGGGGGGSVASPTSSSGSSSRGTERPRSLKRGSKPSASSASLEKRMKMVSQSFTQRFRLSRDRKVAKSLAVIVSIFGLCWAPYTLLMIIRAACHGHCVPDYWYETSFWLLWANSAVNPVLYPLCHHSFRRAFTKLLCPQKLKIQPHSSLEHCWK

SMILES | pKi (human H3 receptor [1]) | pKi (Rat SERT) | Kb (human H3 receptor [2]; [3]) | Ki (Rat SERT; Rat SERT Ki (nM)) | Kb (human H3 receptor [2]; pA2, SK-N-MC cells expressing human H3 receptor and CRE-β-galactosidase reporter) | pKi (human SERT)
CSc1ccc(C2CN(C)Cc3cc(OCC4CN(C5CCC5)C4)ccc32)cc1 (stereo not drawn) [Example 238, 7-(1-Cyclobutyl-azetidin-3-ylmethoxy)-2-methyl-4-(4-methylsulfanyl-phenyl)-1,2,3,4-tetrahydro-isoquinoline] | 8.30 | 8.40 | 12.6 nM | – | – | –
COc1ccc(C2CN(C3CC3)Cc3cc(OCCCN4CCCCC4)ccc32)cc1 (stereo not drawn) [Example 73, 2-Cyclopropyl-4-(4-methoxy-phenyl)-7-(3-piperidin-1-yl-propoxy)-1,2,3,4-tetrahydro-isoquinoline] | 8.70 | 7.08 | 1 nM | – | – | –
CN1Cc2cc(OCCCN3CCC(F)CC3)ccc2C(c2cc(Cl)ccc2Cl)C1 (stereo not drawn) [Example 55, 4-(2,5-Dichloro-phenyl)-7-[3-(4-fluoro-piperidin-1-yl)-propoxy]-2-methyl-1,2,3,4-tetrahydro-isoquinoline] | 8.10 | – | – | 209 nM | 5.01 nM | –
CN1Cc2cc(OCCCN3CCC(F)CC3)ccc2C(c2ccc(Br)cc2)C1 (stereo not drawn) [Example 213, 4-(4-Bromo-phenyl)-7-[3-(4-fluoro-piperidin-1-yl)-propoxy]-2-methyl-1,2,3,4-tetrahydro-isoquinoline] | 7.96 | 8.22 | 10 nM | – | – | –
CSc1ccc(C2CN(C)Cc3cc(OCC4CN(C5CC5)CCO4)ccc32)cc1 (mixture of isomers) [Example 263, 7-(4-Cyclopropyl-morpholin-2-ylmethoxy)-2-methyl-4-(4-methylsulfanyl-phenyl)-1,2,3,4-tetrahydro-isoquinoline] | 7.96 | 7.96 | 7.94 nM | – | – | –
COc1ccc(C2CN(C)Cc3cc(OC[C@@H]4CN(C5CC5)CCO4)ccc32)cc1 (single isomer, unassigned) [Example 260A, 7-(4-Cyclopropyl-morpholin-2S-ylmethoxy)-4-(4-methoxy-phenyl)-2-methyl-1,2,3,4-tetrahydro-isoquinoline] | 8.70 | 7.77 | 1 nM | – | – | –
CN1Cc2cc(OCCCN3CCOCC3)ccc2C(c2ccc([S+](C)[O-])cc2)C1 (single isomer, unassigned) [Example 165A, 4-(4-Methanesulfinyl-phenyl)-2-methyl-7-(3-morpholin-4-yl-propoxy)-1,2,3,4-tetrahydro-isoquinoline] | 8.70 | 7.04 | 3.16 nM | – | – | –
CSc1ccc(C2CN(C)Cc3cc(OCC4CN(C(C)C)CCO4)ccc32)cc1 (mixture of isomers) [Example 262, 7-(4-Isopropyl-morpholin-2-ylmethoxy)-2-methyl-4-(4-methylsulfanyl-phenyl)-1,2,3,4-tetrahydro-isoquinoline] | 8.00 | 8.30 | 6.31 nM | – | – | –
COc1ccc(C2CN(C)Cc3cc(OC[C@H]4CN(C(C)C)CCO4)ccc32)cc1 (single isomer, unassigned) [Example 256A, 7-(4-Isopropyl-morpholin-2R-ylmethoxy)-4-(4-methoxy-phenyl)-2-methyl-1,2,3,4-tetrahydro-isoquinoline] | 8.15 | 7.92 | 5.01 nM | – | – | –
COc1ccc(C2CN(C)Cc3cc(OCCCN4CCCCC4)c(C)cc32)cc1 (stereo not drawn) [Example 265, 4-(4-Methoxy-phenyl)-2,6-dimethyl-7-(3-piperidin-1-yl-propoxy)-1,2,3,4-tetrahydro-isoquinoline] | 8.70 | 7.89 | 1.58 nM | – | – | –
CN1Cc2cc(OCCCN3CCC(F)CC3)ccc2C(c2ccc(Cl)c(Cl)c2)C1 (stereo not drawn) [Example 58, 4-(3,4-Dichloro-phenyl)-7-[3-(4-fluoro-piperidin-1-yl)-propoxy]-2-methyl-1,2,3,4-tetrahydro-isoquinoline] | 8.05 | 8.10 | 31.6 nM | – | – | –
CSc1ccc(C2CN(C)Cc3cc(OCC4CN(C5CC5)C4)ccc32)cc1 (stereo not drawn) [Example 237, 7-(1-Cyclopropyl-azetidin-3-ylmethoxy)-2-methyl-4-(4-methylsulfanyl-phenyl)-1,2,3,4-tetrahydro-isoquinoline] | 8.30 | 8.52 | 15.8 nM | – | – | –
COc1ccc(C2CNCc3cc(OCCCN4CCCCC4)ccc32)cc1 (stereo not drawn) [Example 69, 4-(4-Methoxy-phenyl)-7-(3-piperidin-1-yl-propoxy)-1,2,3,4-tetrahydro-isoquinoline] | 9.00 | 8.05 | 0.794 nM | – | – | –
CCCN1CCC(COc2ccc3c(c2)CN(C)CC3c2ccc(OC)cc2)CC1 (stereo not drawn) [Example 85, 4-(4-Methoxy-phenyl)-2-methyl-7-(1-propyl-piperidin-4-ylmethoxy)-1,2,3,4-tetrahydro-isoquinoline] | 8.10 | 8.15 | 6.31 nM | – | – | –
COc1cccc(C2CN(C)Cc3cc(OCC4CCN(C(C)C)CC4)ccc32)c1 (stereo not drawn) [Example 91, 7-(1-Isopropyl-piperidin-4-ylmethoxy)-4-(3-methoxy-phenyl)-2-methyl-1,2,3,4-tetrahydro-isoquinoline] | 9.00 | 7.96 | – | – | – | 7.96
CSc1ccc(C2CN(C)Cc3cc(OCCCN4CCC(F)(F)CC4)ccc32)cc1 (stereo not drawn) [Example 216, 7-[3-(4,4-Difluoro-piperidin-1-yl)-propoxy]-2-methyl-4-(4-methylsulfanyl-phenyl)-1,2,3,4-tetrahydro-isoquinoline] | 7.66 | 8.40 | – | – | – | 8.10
COc1ccc(C2CN(C)Cc3cc(OCC4CCN(CC(C)C)CC4)ccc32)cc1 (stereo not drawn) [Example 110, 7-(1-Isobutyl-piperidin-4-ylmethoxy)-4-(4-methoxy-phenyl)-2-methyl-1,2,3,4-tetrahydro-isoquinoline] | 8.30 | 8.40 | – | – | – | 8.30
CSc1ccc(C2CN(C)Cc3cc(OCC4CCN(C5CCC5)CC4)ccc32)cc1 (stereo not drawn) [Example 104, 7-(1-Cyclobutyl-piperidin-4-ylmethoxy)-2-methyl-4-(4-methylsulfanyl-phenyl)-1,2,3,4-tetrahydro-isoquinoline] | 7.96 | 8.30 | – | – | – | 8.52
CSc1ccc(C2CN(C)Cc3cc(OC4CCN(C(C)C)CC4)ccc32)cc1 (stereo not drawn) [Example 118, 7-(1-Isopropyl-piperidin-4-yloxy)-2-methyl-4-(4-methylsulfanyl-phenyl)-1,2,3,4-tetrahydro-isoquinoline] | 9.00 | 8.10 | – | – | – | 8.40
COc1ccc(C2CN(C)Cc3cc(OCCCN4CCN(C(=O)c5cccn5C)CC4)ccc32)cc1 (stereo not drawn) [Example 13, (4-{3-[4-(4-Methoxy-phenyl)-2-methyl-1,2,3,4-tetrahydro-isoquinolin-7-yloxy]-propyl}-piperazin-1-yl)-(1-methyl-1H-pyrrol-2-yl)-methanone] | 5.62 | 8.00 | – | – | – | 7.96
Cc1ccc(C2CN(C)Cc3cc(OCCCN4CCC(F)CC4)ccc32)cc1 (stereo not drawn) [Example 126, 7-[3-(4-Fluoro-piperidin-1-yl)-propoxy]-2-methyl-4-p-tolyl-1,2,3,4-tetrahydro-isoquinoline] | 8.10 | 8.52 | – | – | – | 7.82
COc1ccc(C2CN(C)Cc3cc(OCC4CCN(C)CC4)ccc32)cc1 (stereo not drawn) [Example 84, 4-(4-Methoxy-phenyl)-2-methyl-7-(1-methyl-piperidin-4-ylmethoxy)-1,2,3,4-tetrahydro-isoquinoline] | 8.52 | 8.15 | – | – | – | 8.15
COc1ccc(C2CN(C)Cc3cc(C#CCCN4CCC(F)(F)CC4)ccc32)cc1 (stereo not drawn) [Example 274, 7-[4-(4,4-Difluoro-piperidin-1-yl)-but-1-ynyl]-4-(4-methoxy-phenyl)-2-methyl-1,2,3,4-tetrahydro-isoquinoline] | 7.19 | 7.85 | – | – | – | 7.57
COc1ccc(C2CN(C)Cc3cc(OCCCN4CCN(C(=O)c5ccncc5)CC4)ccc32)cc1 (stereo not drawn) [Example 4, (4-{3-[4-(4-Methoxy-phenyl)-2-methyl-1,2,3,4-tetrahydro-isoquinolin-7-yloxy]-propyl}-piperazin-1-yl)-pyridin-4-yl-methanone] | 5.40 | 7.48 | – | – | – | 7.68
CCN1CCOC(COc2ccc3c(c2)CN(C)CC3c2ccc(OC)cc2)C1 (mixture of isomers) [Example 257, 7-(4-Ethyl-morpholin-2-ylmethoxy)-4-(4-methoxy-phenyl)-2-methyl-1,2,3,4-tetrahydro-isoquinoline] | 7.96 | 8.10 | – | – | – | 7.96

From US20060194837A1, “Tetrahydroisoquinoline compounds” (priority 2004, published 2006)
